In EP2518054A1, “AMIDE COMPOUND” (Takeda Pharmaceutical Company Limited, priority 2009, dated 2011):

The compounds below were run against T1, human GPR52 (Homo sapiens, UniProt Q9Y2T5) (assay: Increase of intracellular cAMP concentration in human GPR52-expressing CHO cell (AlphaScreen cAMP assay)). Details: CHO, 1µM test compound; 100% = cAMP with 1 µM Reference Example 79, 0% = DMSO; human GPR52-expressing CHO(dhfr-) cells, 37°C, 30 min; read-out: GPR52 agonist activity (%).
T1 construct: expressed in transfected cells; host or cells: CHO(dhfr-) cells
T1 sequence (Q9Y2T5 whole entry): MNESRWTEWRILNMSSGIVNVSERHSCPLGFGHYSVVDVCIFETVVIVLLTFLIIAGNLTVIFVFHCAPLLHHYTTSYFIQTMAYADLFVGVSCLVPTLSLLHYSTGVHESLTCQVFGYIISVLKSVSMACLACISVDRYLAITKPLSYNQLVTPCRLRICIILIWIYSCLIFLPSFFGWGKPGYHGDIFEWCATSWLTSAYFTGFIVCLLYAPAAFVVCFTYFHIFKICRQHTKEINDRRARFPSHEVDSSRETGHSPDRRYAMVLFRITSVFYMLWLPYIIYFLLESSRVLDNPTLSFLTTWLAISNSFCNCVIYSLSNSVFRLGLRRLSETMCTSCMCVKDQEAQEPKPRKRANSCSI
Format: cell-based
Protocol: Increase of intracellular cAMP concentration in human GPR52-expressing CHO cell
Using OptiPlate-384 (PerkinElmer Inc.), 1×10^4 human GPR52-expressing CHO(dhfr-) cells were incubated together with various concentration(10^-5µM - 10µm) of a test compound in an assay buffer (30 µL, HBSS (containing Ca^2+ and Mg^2+), 0.5% BSA, 100 µM IBMX, 100 µM Ro20-1724, 5 mM HEPES (pH 7.55)) at 37°C for 30 min. Thereafter, according to the protocol of AlphaScreen CAMP Assay Kit (PerkinElmer Inc.), the intracellular cAMP concentration was measured by EnVision (PerkinElmer Inc.). The GPR52 agonist activity was calculated, assuming the intracellular cAMP concentration in the presence of […] N-(2-hydroxyethyl)-3-[2-[3-(trifluoromethyl)benzyl]-1-benzofuran-4-yl]benzamide (Reference Example 79) to be 100% and assuming the intracellular cAMP concentration when DMSO was added instead of the test compound to be 0%.

Row | activity at 1 µM [%] | Structure (SMILES)
1 | 89 | COCCNC(=O)c1c(C)nn(-c2cccc3cc(Cc4cccc(C(F)(F)F)c4)sc23)c1CO [Example 66, 5-(hydroxymethyl)-N-(2-methoxyethyl)-3-methyl-1-[2-[3-(trifluoromethyl)benzyl]-1-benzothiophen-7-yl]-1H-pyrazole-4-carboxamide]
2 | 101 | Cc1nn(-c2cccc3cc(Cc4cccc(C(F)(F)F)c4)sc23)c(C)c1C(N)=O [Example 54, 3,5-dimethyl-1-[2-[3-(trifluoromethyl)benzyl]-1-benzothiophen-7-yl]-1H-pyrazole-4-carboxamide]
3 | 90 | Cc1nc(-c2cccc3oc(Cc4cccc(C(F)(F)F)c4)cc23)sc1C(=O)NCCO [Example 46, N-(2-hydroxyethyl)-4-methyl-2-[2-[3-(trifluoromethyl)benzyl]-1-benzofuran-4-yl]-1,3-thiazole-5-carboxamide]
4 | 96 | CC(C)c1nn(-c2cccc3cc(Cc4cccc(C(F)(F)F)c4)sc23)cc1C(=O)NCCO [Example 26, N-(2-hydroxyethyl)-3-(1-methylethyl)-1-[2-[3-(trifluoromethyl)benzyl]-1-benzothiophen-7-yl]-1H-pyrazole-4-carboxamide]
5 | 79 | Cc1cc(C(=O)NCCO)n(-c2cccc3cc(Cc4cccc(C(F)(F)F)c4)sc23)n1 [Example 33, N-(2-hydroxyethyl)-3-methyl-1-[2-[3-(trifluoromethyl)benzyl]-1-benzothiophen-7-yl]-1H-pyrazole-5-carboxamide]
6 | 96 | Cc1nn(-c2cccc3cc(Cc4cc(F)cc(F)c4)sc23)c(C)c1C(=O)NCC(N)=O [Example 101, N-(2-amino-2-oxoethyl)-1-[2-(3,5-difluorobenzyl)-1-benzothiophen-7-yl]-3,5-dimethyl-1H-pyrazole-4-carboxamide]
7 | 105 | Cc1nn(-c2cccc3cc(Cc4cc(F)cc(Cl)c4)sc23)c(C)c1C(=O)NCCO [Example 56, 1-[2-(3-chloro-5-fluorobenzyl)-1-benzothiophen-7-yl]-N-(2-hydroxyethyl)-3,5-dimethyl-1H-pyrazole-4-carboxamide]
8 | 114 | Cc1nn(-c2ccc(F)c3cc(Cc4cccc(C(F)(F)F)c4)sc23)c(CO)c1C(=O)NCCO [Example 71, 1-[4-fluoro-2-[3-(trifluoromethyl)benzyl]-1-benzothiophen-7-yl]-N-(2-hydroxyethyl)-5-(hydroxymethyl)-3-methyl-1H-pyrazole-4-carboxamide]
9 | 99 | CNC(=O)c1c(C)nn(-c2ccc(F)c3cc(Cc4cccc(C(F)(F)F)c4)sc23)c1C [Example 102, 1-[4-fluoro-2-[3-(trifluoromethyl)benzyl]-1-benzothiophen-7-yl]-N,3,5-trimethyl-1H-pyrazole-4-carboxamide]
10 | 105 | Cc1nn(-c2cccc3nn(Cc4cc(F)cc(C(F)(F)F)c4)cc23)c(C)c1C(=O)NCCO [Example 84, 1-[2-[3-fluoro-5-(trifluoromethyl)benzyl]-2H-indazol-4-yl]-N-(2-hydroxyethyl)-3,5-dimethyl-1H-pyrazole-4-carboxamide]
11 | 99 | Cc1nn(-c2ccc(F)c3cc(Cc4cc(F)cc(Cl)c4)sc23)c(CO)c1C(=O)NCC(N)=O [Example 89, N-(2-amino-2-oxoethyl)-1-[2-(3-chloro-5-fluorobenzyl)-4-fluoro-1-benzothiophen-7-yl]-5-(hydroxymethyl)-3-methyl-1H-pyrazole-4-carboxamide]
12 | 84 | Cc1cc(C(=O)NCC(N)=O)n(-c2cccc3cc(Cc4cccc(C(F)(F)F)c4)sc23)n1 [Example 31, N-(2-amino-2-oxoethyl)-3-methyl-1-[2-[3-(trifluoromethyl)benzyl]-1-benzothiophen-7-yl]-1H-pyrazole-5-carboxamide]
13 | 79 | O=C(NCCO)c1cn(-c2cccc3cc(Cc4cccc(C(F)(F)F)c4)sc23)nc1C(F)(F)F [Example 20, N-(2-hydroxyethyl)-3-(trifluoromethyl)-1-[2-[3-(trifluoromethyl)benzyl]-1-benzothiophen-7-yl]-1H-pyrazole-4-carboxamide]
14 | 96 | Cc1nc(-c2cccc3cc(Cc4cccc(C(F)(F)F)c4)sc23)sc1C(N)=O [Example 36, 4-methyl-2-[2-[3-(trifluoromethyl)benzyl]-1-benzothiophen-7-yl]-1,3-thiazole-5-carboxamide]
15 | 94 | Cn1nc(-c2cccc3cc(Cc4cccc(C(F)(F)F)c4)sc23)cc1C(=O)NCC(N)=O [Example 110, N-(2-amino-2-oxoethyl)-1-methyl-3-[2-[3-(trifluoromethyl)benzyl]-1-benzothiophen-7-yl]-1H-pyrazole-5-carboxamide]
16 | 98 | COc1cc(Cc2cc3cccc(-n4nc(C)c(C(N)=O)c4C)c3s2)ccc1F [Example 98, 1-[2-(4-fluoro-3-methoxybenzyl)-1-benzothiophen-7-yl]-3,5-dimethyl-1H-pyrazole-4-carboxamide]
17 | 107 | Cc1cn(-c2cccc3cc(Cc4cccc(C(F)(F)F)c4)sc23)cc1C(=O)NCC(N)=O [Example 12, N-(2-amino-2-oxoethyl)-4-methyl-1-[2-[3-(trifluoromethyl)benzyl]-1-benzothiophen-7-yl]-1H-pyrrole-3-carboxamide]
18 | 97 | Cc1nc(-c2cccc3cc(Cc4cccc(C(F)(F)F)c4)sc23)sc1C(=O)NCC(N)=O [Example 37, N-(2-amino-2-oxoethyl)-4-methyl-2-[2-[3-(trifluoromethyl)benzyl]-1-benzothiophen-7-yl]-1,3-thiazole-5-carboxamide]
19 | 89 | Cc1nn(-c2cccc3sc(Cc4cc(F)cc(Cl)c4)cc23)c(C)c1C(N)=O [Example 109, 1-[2-(3-chloro-5-fluorobenzyl)-1-benzothiophen-4-yl]-3,5-dimethyl-1H-pyrazole-4-carboxamide]
20 | 105 | Cc1nn(-c2cccc3nn(Cc4cc(F)cc(Cl)c4)cc23)c(C)c1C(=O)NCCO [Example 82, 1-[2-(3-chloro-5-fluorobenzyl)-2H-indazol-4-yl]-N-(2-hydroxyethyl)-3,5-dimethyl-1H-pyrazole-4-carboxamide]
21 | 93 | NC(=O)c1cn(-c2cccc3cc(Cc4cccc(C(F)(F)F)c4)sc23)nc1C(F)(F)F [Example 22, 3-(trifluoromethyl)-1-[2-[3-(trifluoromethyl)benzyl]benzothiophen-7-yl]-1H-pyrazole-4-carboxamide]
22 | 97 | Cc1nn(-c2ccc(F)c3cc(Cc4cccc(C(F)(F)F)c4)sc23)c(C)c1C(=O)NC1CC1 [Example 103, N-cyclopropyl-1-[4-fluoro-2-[3-(trifluoromethyl)benzyl]-1-benzothiophen-7-yl]-3,5-dimethyl-1 H-pyrazole-4-carboxamide]
23 | 88 | Cc1c(C(=O)NCC(N)=O)c(CO)nn1-c1cccc2cc(Cc3cccc(C(F)(F)F)c3)sc12 [Example 68, N-(2-amino-2-oxoethyl)-3-(hydroxymethyl)-5-methyl-1-[2-[3-(trifluoromethyl)benzyl]-1-benzothiophen-7-yl]-1H-pyrazole-4-carboxamide]
24 | 97 | Cc1nn(-c2ccc(F)c3cc(Cc4cccc(C(F)(F)F)c4)sc23)c(CO)c1C(N)=O [Example 73, 1-[4-fluoro-2-[3-(trifluoromethyl)benzyl]-1-benzothiophen-7-yl]-5-(hydroxymethyl)-3-methyl-1H-pyrazole-4-carboxamide]
25 | 99 | Cc1nn(-c2ccc(F)c3cc(Cc4cc(F)cc(Cl)c4)sc23)c(CO)c1C(N)=O [Example 91, 1-[2-(3-chloro-5-fluorobenzyl)-4-fluoro-1-benzothiophen-7-yl]-5-(hydroxymethyl)-3-methyl-1H-pyrazole-4-carboxamide]
26 | 104 | Cc1nn(-c2ccc(F)c3cc(Cc4cc(F)cc(Cl)c4)sc23)c(CO)c1C(=O)NCCO [Example 90, 1-[2-(3-chloro-5-fluorobenzyl)-4-fluoro-1-benzothiophen-7-yl]-N-(2-hydroxyethyl)-5-(hydroxymethyl)-3-methyl-1H-pyrazole-4-carboxamide]
27 | 89 | Cc1nc(-c2cccc3cc(Cc4cccc(C(F)(F)F)c4)sc23)n(C)c1C(N)=O [Example 48, 1,4-dimethyl-2-[2-[3-(trifluoromethyl)benzyl]-1-benzothiophen-7-yl]-1H-imidazole-5-carboxamide]
28 | 89 | Cn1nc(-c2cccc3cc(Cc4cccc(C(F)(F)F)c4)sc23)cc1C(=O)NCCO [Example 111, N-(2-hydroxyethyl)-1-methyl-3-[2-[3-(trifluoromethyl)benzyl]-1-benzathiophen-7-yl]-1H-pyrazole-5-carboxamide]
29 | 95 | Cc1nn(-c2cccc3oc(Cc4cccc(C(F)(F)F)c4)cc23)c(C)c1C(N)=O [Example 76, 3,5-dimethyl-1-[2-[3-(trifluoromethyl)benzyl]-1-benzofuran-4-yl]-1H-pyrazole-4-carboxamide]
30 | 102 | Cc1nn(-c2cccc3cc(Cc4cccc(C(F)(F)F)c4)sc23)c(C)c1C(=O)NCC(N)=O [Example 53, N-(2-amino-2-oxoethyl)-3,5-dimethyl-1-[2-[3-(trifluoromethyl)benzyl]-1-benzothiophen-7-yl]-1H-pyrazole-4-carboxamide]

Same assay, conditions: concentration of the test compound at which it shows 50% activity; human GPR52-expressing CHO(dhfr-) cells; read-out: GPR52 agonist activity EC50

Row | EC50 [nM] | Structure (SMILES)
31 | 6.9 | Cc1nn(-c2cccc3cc(Cc4cc(F)cc(Cl)c4)sc23)c(C)c1C(=O)NCCO [Example 56, 1-[2-(3-chloro-5-fluorobenzyl)-1-benzothiophen-7-yl]-N-(2-hydroxyethyl)-3,5-dimethyl-1H-pyrazole-4-carboxamide]
32 | 27 | Cc1nn(-c2ccc(F)c3cc(Cc4cccc(C(F)(F)F)c4)sc23)c(CO)c1C(=O)NCCO [Example 71, 1-[4-fluoro-2-[3-(trifluoromethyl)benzyl]-1-benzothiophen-7-yl]-N-(2-hydroxyethyl)-5-(hydroxymethyl)-3-methyl-1H-pyrazole-4-carboxamide]
33 | 170 | Cc1c(C(=O)NCC(N)=O)c(CO)nn1-c1cccc2cc(Cc3cccc(C(F)(F)F)c3)sc12 [Example 68, N-(2-amino-2-oxoethyl)-3-(hydroxymethyl)-5-methyl-1-[2-[3-(trifluoromethyl)benzyl]-1-benzothiophen-7-yl]-1H-pyrazole-4-carboxamide]
34 | 14 | Cc1nn(-c2ccc(F)c3cc(Cc4cc(F)cc(Cl)c4)sc23)c(CO)c1C(=O)NCCO [Example 90, 1-[2-(3-chloro-5-fluorobenzyl)-4-fluoro-1-benzothiophen-7-yl]-N-(2-hydroxyethyl)-5-(hydroxymethyl)-3-methyl-1H-pyrazole-4-carboxamide]
35 | 38 | Cn1nc(-c2cccc3cc(Cc4cccc(C(F)(F)F)c4)sc23)cc1C(=O)NCCO [Example 111, N-(2-hydroxyethyl)-1-methyl-3-[2-[3-(trifluoromethyl)benzyl]-1-benzathiophen-7-yl]-1H-pyrazole-5-carboxamide]
